Test results taken from patent US20120015988A1, “Sulfone Compounds Which Modulate The CB2 Receptor” (BOEHRINGER INGELHEIM INTERNATIONAL GMBH, priority 2008, published 2012).

Each compound was assayed against T1, human CB2R (Homo sapiens, UniProt P34972) (assay: CB2R mediated modulation of cAMP synthesis). Conditions: CHO cells expressing human CB2R; concentration at which 50% of the forskolin-stimulated cAMP synthesis was inhibited; 100% defined by 1 uM CP55940; read-out: CB2 EC50.
T1 construct: host or cells: CHO cells
Assay type: cell-based
Description: B. CB2R Mediated Modulation of Camp Synthesis:
Compounds of the invention were evaluated for their CB2 agonist or inverse agonistic activity in accordance with the following experimental method.
CHO cells expressing human CB2R (Euroscreen) were plated at a density of 5000 cells per well in 384 well plates and incubated overnight at 37° C. After removing the media, the cells were treated with test compounds diluted in stimulation buffer containing 1 mM IBMX, 0.25% BSA and 10 uM Forskolin. The assay was incubated for 30 minutes at 37° C. Cells were lysed and the cAMP concentration was measured using DiscoverX-XS cAMP kit, following the manufacturer's protocol. In this setting, agonists will decrease forskolin induced production of cAMP while inverse agonists will further increase forskolin induced production of cAMP. EC50 of agonists were calculated as follows. The maximal amount of cAMP produced by forskolin compared to the level of cAMP inhibited by 1 uM CP55940 is defined as 100%. The EC50 value of each test compound was determined as the concentration at which 50% of the forskolin-stimulated cAMP synthesis was inhibited. Data was analyzed using a four-parameter logistic model. (Model 205 of XLfit 4.0).

T1 sequence (P34972 whole entry): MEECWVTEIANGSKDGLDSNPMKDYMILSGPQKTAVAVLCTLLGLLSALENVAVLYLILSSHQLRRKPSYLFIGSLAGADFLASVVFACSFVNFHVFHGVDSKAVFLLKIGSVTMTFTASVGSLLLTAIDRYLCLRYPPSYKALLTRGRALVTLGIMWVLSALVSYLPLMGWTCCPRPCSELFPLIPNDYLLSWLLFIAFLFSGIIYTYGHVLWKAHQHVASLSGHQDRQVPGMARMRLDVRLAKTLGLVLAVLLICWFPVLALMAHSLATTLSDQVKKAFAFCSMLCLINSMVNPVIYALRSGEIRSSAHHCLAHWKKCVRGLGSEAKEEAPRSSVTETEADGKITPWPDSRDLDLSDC

SMILES	EC50 [nM]
Cn1nc(C(C)(C)C)cc1-c1coc(C(C)(C)S(=O)(=O)c2ccc(Cl)cc2)n1 [Example 1, 4-(5-tert-butyl-2-methyl-2H-pyrazol-3-yl)-2-[1-(4-chloro-benzenesulfonyl)-1-methyl-ethyl]-oxazole]	0.92
Cn1nc(C(C)(C)C)cc1-c1coc(C(C)(C)S(=O)(=O)c2ccc(F)cc2)n1 [Example 2, 4-(5-tert-butyl-2-methyl-2H-pyrazol-3-yl)-2-[1-(4-fluoro-benzenesulfonyl)-1-methyl-ethyl]-oxazole]	0.35
Cn1nc(C(C)(C)C)cc1-c1coc(C(C)(C)S(=O)(=O)c2ccc(Cl)cc2F)n1 [Example 3, 4-(5-tert-butyl-2-methyl-2H-pyrazol-3-yl)-2-[1-(4-chloro-2-fluoro-benzenesulfonyl)-1-methyl-ethyl]-oxazole]	3.9
Cc1ccc(S(=O)(=O)C(C)(C)c2nc(-c3cc(C(C)(C)C)nn3C)co2)cc1 [Example 4, 4-(5-tert-butyl-2-methyl-2H-pyrazol-3-yl)-2-[1-methyl-1-(toluene-4-sulfonyl)-ethyl]-oxazole]	12
Cn1nc(C(C)(C)C)cc1-c1coc(C(C)(C)S(=O)(=O)CC2CCOCC2)n1 [Example 5, 4-(5-tert-butyl-2-methyl-2H-pyrazol-3-yl)-2-[1-methyl-1-(tetrahydro-pyran-4-ylmethanesulfonyl)-ethyl]-oxazole]	145
Cn1nc(C(C)(C)C)cc1-c1coc(C(C)(C)S(=O)(=O)C2CCCCC2)n1 [Example 6, 4-(5-tert-butyl-2-methyl-2H-pyrazol-3-yl)-2-(1-cyclohexanesulfonyl-1-methyl-ethyl)-oxazole]	371
CC(C)(C)c1cc(-c2coc(C(C)(C)S(=O)(=O)c3ccc(Cl)cc3)n2)no1 [Example 7, 5-tert-butyl-3-{2-[1-(4-chloro-benzenesulfonyl)-1-methyl-ethyl]-oxazol-4-yl}-isoxazole]	0.9
Cn1nc(C(C)(C)C)cc1-c1cnc(C(C)(C)S(=O)(=O)c2ccc(Cl)cc2)o1 [Example 8, 5-(5-tert-butyl-2-methyl-2H-pyrazol-3-yl)-2-[1-(4-chloro-benzenesulfonyl)-1-methyl-ethyl]-oxazole]	22
Cn1nc(C(C)(C)C)cc1-c1cnc(C(C)(C)S(=O)(=O)c2ccc(F)cc2)o1 [Example 9, 5-(5-tert-butyl-2-methyl-2H-pyrazol-3-yl)-2-[1-(4-fluoro-benzenesulfonyl)-1-methyl-ethyl]-oxazole]	5.8
Cn1nc(C(C)(C)C)cc1-c1nnc(C(C)(C)S(=O)(=O)c2ccc(Cl)cc2)[nH]1 [Example 12, 3-(5-tert-butyl-2-methyl-2H-pyrazol-3-yl)-5-[1-(4-chloro-benzenesulfonyl)-1-methyl-ethyl]-4H-[1,2,4]triazole]	12
CC(C)(C)c1cc(-c2nnc(C(C)(C)S(=O)(=O)CC3CCOCC3)[nH]2)on1 [Example 14, 3-(3-tert-butyl-isoxazol-5-yl)-5-[1-methyl-1-(tetrahydro-pyran-4-ylmethanesulfonyl)-ethyl]-4H-[1,2,4]triazole]	159
CC(C)(c1nc(C2CCCCC2)no1)S(=O)(=O)c1ccc(C(F)(F)F)cc1 [Example 16, 3-cyclohexyl-5-[1-methyl-1-(4-trifluoromethyl-benzenesulfonyl)-ethyl]-[1,2,4]oxadiazole]	12
Cn1nc(C(C)(C)C)cc1-c1nc(C(C)(C)S(=O)(=O)c2ccc(Cl)cc2)no1 [Example 18, 5-(5-tert-butyl-2-methyl-2H-pyrazol-3-yl)-3-[1-(4-chloro-benzenesulfonyl)-1-methyl-ethyl]-[1,2,4]oxadiazole]	2.7
Cn1nc(C(C)(C)C)cc1-c1nc(C(C)(C)S(=O)(=O)CC2CCOCC2)no1 [Example 19, 5-(5-tert-butyl-2-methyl-2H-pyrazol-3-yl)-3-[1-methyl-1-(tetrahydro-pyran-4-ylmethanesulfonyl)-ethyl]-[1,2,4]oxadiazole]	9.2
CC(C)(C)c1cc(-c2nnc(C(C)(C)S(=O)(=O)c3ccc(Cl)cc3)o2)on1 [Example 22, 2-(3-tert-butyl-isoxazol-5-yl)-5-[1-(4-chloro-benzenesulfonyl)-1-methyl-ethyl]-[1,3,4]oxadiazole]	5.3
CC(C)(C)c1cc(-c2nnc(C(C)(C)S(=O)(=O)CC3CCOCC3)o2)on1 [Example 24, 2-(3-tert-butyl-isoxazol-5-yl)-5-[1-methyl-1-(tetrahydro-pyran-4-ylmethanesulfonyl)-ethyl]-[1,3,4]oxadiazole]	48
CC(C)(C)c1cc(-c2nnc(C(C)(C)S(=O)(=O)c3ccc(Cl)cc3)o2)no1 [Example 25, 2-(5-tert-butyl-isoxazol-3-yl)-5-[1-(4-chloro-benzenesulfonyl)-1-methyl-ethyl]-[1,3,4]oxadiazole]	6.9

SMILES	EC50 [nM]
Cn1nc(C(C)(C)C)cc1-c1nnc(C(C)(C)S(=O)(=O)c2ccc(Cl)cc2)o1 [Example 26, 2-(5-tert-butyl-2-methyl-2H-pyrazol-3-yl)-5-[1-(4-chloro-benzenesulfonyl)-1-methyl-ethyl]-[1,3,4]oxadiazole]	9
CC(C)(C)c1cc(-c2nnc(C(C)(C)S(=O)(=O)c3ccc(F)cc3)o2)no1 [Example 27, 2-(5-tert-butyl-isoxazol-3-yl)-5-[1-(4-fluoro-benzenesulfonyl)-1-methyl-ethyl]-[1,3,4]oxadiazole]	35
Cn1nc(C(C)(C)C)cc1-c1nnc(C(C)(C)S(=O)(=O)c2ccc(F)cc2)o1 [Example 28, 2-(5-tert-butyl-2-methyl-2H-pyrazol-3-yl)-5-[1-(4-fluoro-benzenesulfonyl)-1-methyl-ethyl]-[1,3,4]oxadiazole]	16
CC(C)(C)c1cc(-c2nnc(C(C)(C)S(=O)(=O)C3CCOCC3)o2)on1 [Example 29, 2-(3-tert-butyl-isoxazol-5-yl)-5-[1-methyl-1-(tetrahydro-pyran-4-sulfonyl)-ethyl]-[1,3,4]oxadiazole]	27
CC(C)(C)c1cc(-c2nnc(C(C)(C)S(=O)(=O)Cc3ccc(F)cc3)o2)on1 [Example 31, 2-(3-tert-butyl-isoxazol-5-yl)-5-[1-(4-fluoro-phenylmethanesulfonyl)-1-methyl-ethyl]-[1,3,4]oxadiazole]	162
Cn1nc(C(C)(C)C)cc1-c1nnc(C2(S(=O)(=O)c3ccc(Cl)cc3)CC2)o1 [Example 32, 2-(5-tert-butyl-2-methyl-2H-pyrazol-3-yl)-5-[1-(4-chloro-benzenesulfonyl)-cyclopropyl]-[1,3,4]oxadiazole]	3.7
CC(C)(C)c1cc(-c2noc(C(C)(C)S(=O)(=O)c3ccc(F)cc3)n2)on1 [Example 34, 3-(3-tert-butyl-isoxazol-5-yl)-5-[1-(4-fluoro-benzenesulfonyl)-1-methyl-ethyl]-[1,2,4]oxadiazole]	1.8
CC(C)(C)c1cc(-c2noc(C(C)(C)S(=O)(=O)c3ccc(C(F)(F)F)cc3)n2)on1 [Example 35, 3-(3-tert-butyl-isoxazol-5-yl)-5-[1-methyl-1-(4-trifluoromethyl-benzenesulfonyl)-ethyl]-[1,2,4]oxadiazole]	5.9
CC(C)(C)c1cc(-c2noc(C(C)(C)S(=O)(=O)CC3CCOCC3)n2)on1 [Example 36, 3-(3-tert-butyl-isoxazol-5-yl)-5-[1-methyl-1-(tetrahydro-pyran-4-ylmethanesulfonyl)-ethyl]-[1,2,4]oxadiazole]	15
CC(C)(C)c1cc(-c2nc(C(C)(C)S(=O)(=O)c3ccc(F)cc3)no2)on1 [Example 37, 5-(3-tert-butyl-isoxazol-5-yl)-3-[1-(4-fluoro-benzenesulfonyl)-1-methyl-ethyl]-[1,2,4]oxadiazole]	1
CC(C)(C)c1cc(-c2nc(C(C)(C)S(=O)(=O)CC3CCOCC3)no2)on1 [Example 38, 5-(3-tert-butyl-isoxazol-5-yl)-3-[1-methyl-1-(tetrahydro-pyran-4-ylmethanesulfonyl)-ethyl]-[1,2,4]oxadiazole]	210
CC(C)(C)c1cc(-c2nnc(C(C)(C)S(=O)(=O)c3ccc(F)cc3)s2)on1 [Example 39, 2-(3-tert-butyl-isoxazol-5-yl)-5-[1-(4-fluoro-benzenesulfonyl)-1-methyl-ethyl]-[1,3,4]thiadiazole]	6.7
CC(C)(C)c1cc(-c2nnc(C(C)(C)S(=O)(=O)c3ccc(F)cc3)s2)no1 [Example 40, 2-(5-tert-butyl-isoxazol-3-yl)-5-[1-(4-fluoro-benzenesulfonyl)-1-methyl-ethyl]-[1,3,4]thiadiazole]	17
Cn1nc(C(C)(C)C)cc1-c1nnc(C(C)(C)S(=O)(=O)c2ccc(F)cc2)s1 [Example 41, 2-(5-tert-butyl-2-methyl-2H-pyrazol-3-yl)-5-[1-(4-fluoro-benzenesulfonyl)-1-methyl-ethyl]-[1,3,4]thiadiazole]	2.5
Cn1nc(C(C)(C)C)cc1-c1nnc(C(C)(C)S(=O)(=O)C2CCOCC2)s1 [Example 42, 2-(5-tert-butyl-2-methyl-2H-pyrazol-3-yl)-5-[1-methyl-1-(tetrahydro-pyran-4-sulfonyl)-ethyl]-[1,3,4]thiadiazole]	117
CC(C)(CO)c1cc(-c2nnc(C(C)(C)S(=O)(=O)c3ccc(F)cc3)s2)on1 [Example 43, 2-(5-{5-[1-(4-fluoro-benzenesulfonyl)-1-methyl-ethyl]-[1,3,4]thiadiazol-2-yl}-isoxazol-3-yl)-2-methyl-propan-1-ol]	175
